Source: patent publication US20040224958A1, “Pyridopyrimidinone derivatives for treatment of neurodegenerative disease” (priority 2000, published 2004)
Where two headings read alike, the source gives them in different places.

What was measured:
[1] = molecular target: cdk4/D (Homo sapiens, UniProt P11802); experiment: Cyclin-Dependent Kinase 4 (cdk4) Assay; type: biochemical; conditions: read-out: cdk4/D IC50
[2] = molecular target: Cdk5/p25 (Homo sapiens, UniProt Q00535); experiment: Cyclin-Dependent Kinase 5 High Throughput Screening (cdk5-HTS) Assay; type: biochemical; conditions: high throughput screen
How it was run: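 Cdk5/p25 (1.0 μg/mL) phosphorylates GST-RbCOOH (20 μg/mL) in 50 mM Tris pH 7.4 with 10 mM MgCl2 and 20 μM ATP spiked with [γ33P]ATP, 30 min at room temperature. After EDTA stop, substrate captured on glutathione-coated plates; 33P incorporation counted by scintillation; IC50 determined.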

[3] = molecular target: cdk2/cyclinE (Homo sapiens, UniProt P24941); experiment: Cyclin-Dependent Kinase Assay cdk2/cyclinE
[4] = molecular target: cdk2/cyclinA (Homo sapiens, UniProt P24941); experiment: Cyclin-Dependent Kinase Assay cdk2/cyclinA
Protocol: Cyclin-Dependent Kinase Assays (cdk2/cyclinE, cdk2/cyclinA, cdc2/cyclinB)
All components except the ATP were added to the wells, and the plate was placed on a plate mixer for 2 minutes. The reaction was begun by addition of [^32P]ATP, and the plate was incubated at 25° C. for 15 minutes. The reaction was terminated by addition of 0.1 mL of 20% TCA. The plate was kept at 4° C. for at least 1 hour to allow the substrate to precipitate. The wells were then washed five times with 0.2 mL of 10% TCA and ^32p incorporation determined with a beta plate counter (Wallac Inc., Gaithersburg, Md.).

[5] = molecular target: cdc2/cyclinB (Homo sapiens, UniProt P06493); experiment: Cyclin-Dependent Kinase Assay cdc2/cyclinB
Chain of cdc2/cyclinB (P06493 whole entry): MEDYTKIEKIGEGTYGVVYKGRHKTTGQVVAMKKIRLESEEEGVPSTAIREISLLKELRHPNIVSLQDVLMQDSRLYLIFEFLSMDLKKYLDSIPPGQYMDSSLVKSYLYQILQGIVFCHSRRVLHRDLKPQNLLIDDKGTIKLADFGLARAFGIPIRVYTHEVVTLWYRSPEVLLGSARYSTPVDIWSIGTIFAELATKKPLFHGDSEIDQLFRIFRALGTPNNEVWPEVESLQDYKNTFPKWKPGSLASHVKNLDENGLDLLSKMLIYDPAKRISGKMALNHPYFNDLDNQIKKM
Chain of cdc2/cyclinB (P14635 whole entry, further chain): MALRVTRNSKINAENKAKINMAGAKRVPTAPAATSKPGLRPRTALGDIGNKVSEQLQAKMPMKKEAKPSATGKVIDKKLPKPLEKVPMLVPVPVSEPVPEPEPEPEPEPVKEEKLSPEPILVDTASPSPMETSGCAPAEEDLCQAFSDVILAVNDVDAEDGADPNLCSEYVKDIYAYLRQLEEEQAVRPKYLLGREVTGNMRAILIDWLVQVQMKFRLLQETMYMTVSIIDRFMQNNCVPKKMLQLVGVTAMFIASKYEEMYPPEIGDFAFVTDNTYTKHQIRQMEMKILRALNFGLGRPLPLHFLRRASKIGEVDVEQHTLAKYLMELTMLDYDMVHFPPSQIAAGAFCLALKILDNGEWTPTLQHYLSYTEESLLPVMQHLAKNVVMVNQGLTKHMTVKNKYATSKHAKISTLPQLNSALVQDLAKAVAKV

Chain of cdk4/D (P11802 whole entry): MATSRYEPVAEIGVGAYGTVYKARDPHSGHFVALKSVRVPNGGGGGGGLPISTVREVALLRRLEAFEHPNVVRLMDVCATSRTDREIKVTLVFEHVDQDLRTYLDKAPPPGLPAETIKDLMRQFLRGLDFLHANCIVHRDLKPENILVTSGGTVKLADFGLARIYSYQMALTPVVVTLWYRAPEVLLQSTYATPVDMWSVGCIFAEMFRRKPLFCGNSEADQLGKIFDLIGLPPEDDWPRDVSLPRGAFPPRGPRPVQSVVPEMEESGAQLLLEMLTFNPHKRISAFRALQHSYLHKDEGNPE
Chain of cdk4/D (P24385 whole entry, further chain): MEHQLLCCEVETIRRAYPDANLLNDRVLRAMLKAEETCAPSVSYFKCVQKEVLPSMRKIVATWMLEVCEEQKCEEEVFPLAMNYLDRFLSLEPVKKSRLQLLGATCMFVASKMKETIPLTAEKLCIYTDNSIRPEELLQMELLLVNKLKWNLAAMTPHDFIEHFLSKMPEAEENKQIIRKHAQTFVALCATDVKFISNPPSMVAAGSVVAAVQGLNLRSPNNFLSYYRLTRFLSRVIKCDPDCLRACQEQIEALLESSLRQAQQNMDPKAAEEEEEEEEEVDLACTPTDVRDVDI

Molecule | IC50 [1] [nM] | IC50 [2] [nM] | IC50 ([3]; cdk2/E IC50) [nM] | IC50 ([4]; cdk2/A IC50) [nM] | IC50 [5] [nM] | IC50 ([3]; read-out: cdk2/E IC50) [nM] | IC50 ([4]; read-out: cdk2/A IC50) [nM] | IC50 ([5]; read-out: cdk1/B IC50) [nM]
O=c1ccc2cnc(Nc3ccc4c(c3)CCC4)nc2n1CC1CC1 [Example 587, 8-Cyclopropylmethyl-2-(indan-5-ylamino)-8H-pyrido[2,3-d]pyrimidin-7-one] | 200 | 160 | 81 | 440 | 360 | – | – | –
CCC(C)n1c(=O)ccc2cnc(Nc3ccc(F)c([N+](=O)[O-])c3)nc21 (stereo not shown) [Example 475, 8-sec-Butyl-2-(4-fluoro-3-nitro-phenylamino)-8H-pyrido[2,3-d]pyrimidin-7-one] | 1400 | 480 | 820 | 1500 | 1100 | – | – | –
8-Cyclopentyl-2-(3-fluoro-4-methoxy-phenylamino)-8H-pyrido[2,3-d]pyrimidin-7-one [Example 542] | 9.5 | 7.7 | – | – | – | 35 | 75 | 85
CCCCn1c(=O)ccc2cnc(Nc3ccc(OC)cc3)nc21 [Example 385, 8-Butyl-2-(4-methoxy-phenylamino)-8H-pyrido[2,3-d]pyrimidin-7-one] | 1140 | 130 | 150 | 320 | 155 | – | – | –
CCCn1c(=O)ccc2cnc(Nc3ccc(I)c(Cl)c3)nc21 [Example 344, 2-(3-Chloro-4-iodo-phenylamino)-8-propyl-8H-pyrido[2,3-d]pyrimidin-7-one] | 370 | 46 | 470 | 990 | 360 | – | – | –
CCC(C)n1c(=O)ccc2cnc(Nc3ccc(O)c(Cl)c3)nc21 (stereo not shown) [Example 452, 8-sec-Butyl-2-(3-chloro-4-hydroxy-phenylamino)-8H-pyrido[2,3-d]pyrimidin-7-one] | 114 | 13 | 22 | 40 | 25.5 | – | – | –
CCC(CC)n1c(=O)ccc2cnc(Nc3ccc(C)c(NS(C)(=O)=O)c3)nc21 [Example 519, N-{5-[8-(1-Ethyl-propyl)-7-oxo-7,8-dihydro-pyrido[2,3-d]pyrimidin-2-ylamino]-2-methyl-phenyl}-methanesulfonamide] | 150 | 33 | 140 | 310 | 47 | – | – | –
CC(=O)Nc1cc(Nc2ncc3ccc(=O)n(C(C)C)c3n2)ccc1C#N [Example 424, N-[2-Cyano-5-(8-isopropyl-7-oxo-7,8-dihydro-pyrido[2,3-d]pyrimidin-2-ylamino)-phenyl]-acetamide] | 100 | 39 | 360 | 460 | 520 | – | – | –
CCC(CC)n1c(=O)ccc2cnc(Nc3ccc(C#N)c(NC(C)=O)c3)nc21 [Example 506, N-{2-Cyano-5-[8-(-ethyl-propyl)-7-oxo-7,8-dihydro-pyrido[2,3-d]pyrimidin-2-ylamino]-phenyl}-acetamide] | 36 | 44 | 93 | 400 | 110 | – | – | –
CCn1c(=O)ccc2cnc(Nc3ccc(F)c(C(F)(F)F)c3)nc21 [Example 293, 8-Ethyl-2-(4-fluoro-3-trifluoromethyl-phenylamino)-8H-pyrido[2,3-d]pyrimidin-7-one] | 2000 | 40 | 250 | 1500 | 430 | – | – | –
CCC(CC)n1c(=O)ccc2cnc(Nc3ccc(C#N)cc3)nc21 [Example 484] | 187 | 40.8 | 136 | 363 | 192 | – | – | –
CCCn1c(=O)ccc2cnc(Nc3ccc(F)c([N+](=O)[O-])c3)nc21 [Example 351, 2-(4-Fluoro-3-nitro-phenylamino)-8-propyl-8H-pyrido[2,3-d]pyrimidin-7-one] | 1200 | 310 | 560 | 1300 | 700 | – | – | –
CC(C)n1c(=O)ccc2cnc(Nc3ccc(OC(F)(F)F)cc3)nc21 [Example 444, 8-Isopropyl-2-(4-trifluoromethoxy-phenylamino)-8H-pyrido[2,3-d]pyrimidin-7-one] | 360 | 63 | 710 | 75 | 530 | – | – | –
CCCn1c(=O)ccc2cnc(Nc3ccc(Br)c(Cl)c3)nc21 [Example 341, 2-(4-Bromo-3-chloro-phenylamino)-8-propyl-8H-pyrido[2,3-d]pyrimidin-7-one] | 420 | 92 | 280 | 890 | 520 | – | – | –
CCCn1c(=O)ccc2cnc(Nc3ccc(OC)cc3)nc21 [Example 329, 2-(4-Methoxy-phenylamino)-8-propyl-8H-pyrido[2,3-d]pyrimidin-^7-one] | 315 | 160 | 275 | 425 | 320 | – | – | –
O=c1ccc2cnc(Nc3cccc(O)c3)nc2n1CC1CC1 [Example 578, 8-Cyclopropylmethyl-2-(3-hydroxy-phenylamino)-8H-pyrido[2,3-d]pyrimidin-7-one] | 140 | 110 | 170 | 190 | 310 | – | – | –
CCC(CC)n1c(=O)ccc2cnc(Nc3cc(Cl)c(O)c(Cl)c3)nc21 [Example 497, 2-(3,5-Dichloro-4-hydroxy-phenylamino)-8-(1-ethyl-propyl)-8H-pyrido[2,3-d]pyrimidin-7-one] | 480 | 55.5 | 80 | 160 | 46.5 | – | – | –
CCCn1c(=O)ccc2cnc(Nc3ccc(F)cc3)nc21 [Example 332, 2-(4-Fluoro-phenylamino)-8-propyl-8H-pyrido[2,3-d]pyrimidin-7-one] | 2050 | 590 | 417 | 1310 | 1050 | – | – | –
CCCCn1c(=O)ccc2cnc(Nc3cccc(C(F)(F)F)c3)nc21 [Example 373, 8-Butyl-2-(3-trifluoromethyl-phenylamino)-8H-pyrido[2,3-d]pyrimidin-7-one] | 2150 | 214 | 208 | 1150 | 430 | – | – | –
CCn1c(=O)ccc2cnc(Nc3ccc(NC(=O)OC(C)(C)C)cc3)nc21 [Example 288, [4-(8-Ethyl-7-oxo-7,8-dihydro-pyrido[2,3-d]pyrimidin-2-ylamino)-phenyl]-carbamic acid tert-butyl ester] | 965 | 295 | 1060 | 1250 | 485 | – | – | –
CCC(CC)n1c(=O)ccc2cnc(Nc3cc(Cl)c(N)c(Cl)c3)nc21 [Example 521, 2-(4-Amino-3,5-dichloro-phenylamino)-S-(1-ethyl-propyl)-8H-pyrido[2,3-d]pyrimidin-7-one] | 67 | 42 | 98 | 220 | 67 | – | – | –
CCCCn1c(=O)ccc2cnc(Nc3ccc(N(C)C(C)=O)cc3)nc21 [Example 370, N-[4-(8-Butyl-7-oxo-7,8-dihydro-pyrido[2,3-d]pyrimidin-2-ylamino)-phenyl]-N-methyl-acetamide] | 1140 | 917 | 1280 | 610 | 808 | – | – | –
CCn1c(=O)ccc2cnc(Nc3ccc(F)c(F)c3)nc21 [Example 301, 2-(3,4-Difluoro-phenylamino)-8-ethyl-8H-pyrido[2,3-d]pyrimidin-7-one] | 140 | 120 | 320 | 830 | 600 | – | – | –
CCCn1c(=O)ccc2cnc(Nc3cc(Cl)c(O)c(Cl)c3)nc21 [Example 328, 2-(3,5-Dichloro-4-hydroxy-phenylamino)-8-propyl-8H-pyrido[2,3-d]pyrimidin-7-one] | 690 | 92.5 | 35.3 | 75 | 80 | – | – | –
CCC(C)n1c(=O)ccc2cnc(Nc3ccc(C)c(C)c3)nc21 (stereo not shown) [Example 476, 8-sec-Butyl-2-(3,4-dimethyl-phenylamino)-8Hi-pyrido[2,3-d]pyrimidin-7-one] | 230 | 31 | 200 | 160 | 170 | – | – | –
COc1cc(Nc2ncc3ccc(=O)n(C(C)C)c3n2)cc(C(F)(F)F)c1 [Example 425, 8-Isopropyl-2-(3-methoxy-5-trifluoromethyl-phenylamino)-8H-pyrido[2,3-d]pyrimidin-7-one] | 850 | 180 | 770 | 1800 | 490 | – | – | –
CCC(C)n1c(=O)ccc2cnc(Nc3cc(F)cc(F)c3)nc21 (stereo not shown) [Example 472, 8-sec-Butyl-2-(3,5-difluoro-phenylamino)-8H-pyrido[2,3-d]pyrimidin-7-one] | 370 | 52 | 200 | 150 | 250 | – | – | –
2-(4-Chloro-3-methyl-phenylamino)-8-isopropyl-8H-pyrido[2,3-d]pyrimidin-7-one [Example 416] | 180 | 38 | – | – | – | 220 | 350 | 280
COc1cc(Nc2ncc3ccc(=O)n(C4CCCC4)c3n2)cc(C(F)(F)F)c1 [Example 543, 8-Cyclopentyl-2-(3-methoxy-5-trifluoromethyl-phenylamino)-8H-pyrido[2,3-d]pyrimidin-7-one] | 280 | 210 | 500 | 1700 | 550 | – | – | –
